Measured values published in patent US11382918B2, “Methods for treating Huntington's Disease” (PTC Therapeutics, Inc., priority 2017, dated 2022).

test system: Endogenous Huntingtin Protein (HTT); assay: Endogenous Huntingtin Protein Assay (ELISA-based MSD electrochemiluminescence); format: cell-based; conditions: Table 1
Experimental: Compounds of Formula (I) were tested using the Meso Scale Discovery (MSD) Assay provided in International Application No. PCT/US2016/066042, filed on Dec. 11, 2016 and claiming priority to U.S. Provisional Application 62/265,652 filed on Dec. 10, 2015, published as International Publication No. WO 2017/100726 on Jun. 15, 2017, the entire contents of which are incorporated herein by reference.
The Endogenous Huntingtin Protein assay used in Example 1 was developed using the ELISA-based MSD electrochemiluminescence assay platform.
Endogenous Huntingtin Protein Assay
Meso Scale Discovery (MSD) 96-well or 384-well plates were coated overnight at 4° C. with MW1 (expanded polyglutamine) or MAB2166 monoclonal antibody (for capture) at a concentration of 1 μg/mL in PBS (30 μL per well). Plates were then washed three times with 300 µL wash buffer (0.05% Tween-20 in PBS) and blocked (100 μL blocking buffer; 5% BSA in PBS) for 4-5 hours at room temperature with rotational shaking and then washed three times with wash buffer.
Samples (25 μL) were transferred to the antibody-coated MSD plate and incubated overnight at 4° C. After removal of the lysates, the plate was washed three times with wash buffer, and 25 μL of #5656S (Cell signaling; rabbit monoclonal) secondary antibody (diluted to 0.25 μg/mL in 0.05% Tween-20 in blocking buffer) was added to each well and incubated with shaking for 1 Hour at room temperature. Following incubation with the secondary antibody, the wells were rinsed with wash buffer after which 25 μL of goat anti-rabbit SULFO TAG secondary detection antibody (required aspect of the MSD system) (diluted to 0.25 μg/mL in 0.05% Tween-20 in blocking buffer) was added to each well and incubated with shaking for 1 hour at room temperature. After rinsing three times with wash buffer, 150 μL of read buffer T with surfactant (MSD) were added to each empty well, and the plate was imaged on a SI 6000 imager (MSD) according to manufacturers' instructions provided for 96- or 384-well plates.

Structure (SMILES)	IC50
Cc1cn2cc(-c3cc(=O)n4cc(N5CCN[C@@H](C)C5)ccc4n3)nc2cn1 [compound 75, 2-(6-methylimidazo[1,2-a]pyrazin-2-yl)-7-[(3S)-3-methylpiperazin-1-yl]-4H-pyrido[1,2-a]pyrimidin-4-one]	1000 to 3000 nM
COc1ccc(-c2cc(=O)n3cc(N4CCNCC4)ccc3n2)cn1 [compound 88, 2-(6-methoxypyridin-3-yl)-7-(piperazin-1-yl)-4H-pyrido[1,2-a]pyrimidin-4-one]	3000 to 33000 nM
O=c1cc(-c2cncc(Cl)c2)nc2ccc(N3CCNCC3)cn12 [compound 94, 2-(5-chloropyridin-3-yl)-7-(piperazin-1-yl)-4H-pyrido[1,2-a]pyrimidin-4-one]	3000 to 33000 nM
COc1ncc(-c2cc(=O)n3cc(N4CCNCC4)ccc3n2)cc1Cl [compound 96, 2-(5-chloro-6-methoxypyridin-3-yl)-7-(piperazin-1-yl)-4H-pyrido[1,2-a]pyrimidin-4-one]	3000 to 33000 nM
O=c1cc(-c2ccn3ccnc3c2)nc2ccc(N3CCNCC3)cn12 [compound 107, 2-(imidazo[1,2-a]pyridin-7-yl)-7-(piperazin-1-yl)-4H-pyrido[1,2-a]pyrimidin-4-one]	3000 to 33000 nM
Cc1cn2cc(-c3cc(=O)n4cc(N5CCN(C)CC5)ccc4n3)ccc2n1 [compound 114, 2-(2-methylimidazo[1,2-a]pyridin-6-yl)-7-(4-methylpiperazin-1-yl)-4H-pyrido[1,2-a]pyrimidin-4-one]	3000 to 33000 nM
O=c1cc(-c2ccc3nc(C(F)(F)F)cn3c2)nc2ccc(N3CCNCC3)cn12 [compound 123, 7-(piperazin-1-yl)-2-[2-(trifluoromethyl)imidazo[1,2-a]pyridin-6-yl]-4H-pyrido[1,2-a]pyrimidin-4-one]	3000 to 33000 nM
Cn1ccc2cc(-c3cc(=O)n4cc(N5CCNCC5)ccc4n3)cnc21 [compound 129, 2-(1-methyl-1H-pyrrolo[2,3-b]pyridin-5-yl)-7-(piperazin-1-yl)-4H-pyrido[1,2-a]pyrimidin-4-one]	3000 to 33000 nM
Cc1cn2nc(-c3cc(=O)n4cc(N5C[C@@H](C)N[C@@H](C)C5)ccc4n3)cc2c(C)n1 [compound 131, 7-[(3R,5S)-3,5-dimethylpiperazin-1-yl]-2-(4,6-dimethylpyrazolo[1,5-a]pyrazin-2-yl)-4H-pyrido[1,2-a]pyrimidin-4-one]	3000 to 33000 nM
Cc1nc2ccc(-c3cc(=O)n4cc(N5CCNCC5)ccc4n3)cc2o1 [compound 133, 2-(2-methyl-1,3-benzoxazol-6-yl)-7-(piperazin-1-yl)-4H-pyrido[1,2-a]pyrimidin-4-one]	500 to 1000 nM
Cc1nc2cc(-c3cc(=O)n4cc(N5CCN[C@@H](C)C5)ccc4n3)ccc2s1 [compound 135, 2-(2-methyl-1,3-benzothiazol-5-yl)-7-[(3S)-3-methylpiperazin-1-yl]-4H-pyrido[1,2-a]pyrimidin-4-one]	1000 to 3000 nM
Cc1nc2cc(-c3cc(=O)n4cc(N5CCNCC5)ccc4n3)ccc2s1 [compound 136, 2-(2-methyl-1,3-benzothiazol-5-yl)-7-(piperazin-1-yl)-4H-pyrido[1,2-a]pyrimidin-4-one]	3000 to 33000 nM
C[C@H]1CN(c2ccc3nc(-c4ccc5nn(C)cc5c4)cc(=O)n3c2)CCN1 [compound 138, 2-(2-methyl-2H-indazol-5-yl)-7-[(3S)-3-methylpiperazin-1-yl]-4H-pyrido[1,2-a]pyrimidin-4-one]	1000 to 3000 nM

Further lines, results first:

IC50	Structure (SMILES)
3000 to 33000 nM	Cc1ccc2nc(-c3cc(=O)n4cc(N5CCNCC5)ccc4n3)cn2c1 [compound 29, 2-(6-methylimidazo[1,2-a]pyridin-2-yl)-7-(piperazin-1-yl)-4H-pyrido[1,2-a]pyrimidin-4-one]
3000 to 33000 nM	COc1ccc(-c2cc(=O)n3cc(N4CCNCC4)ccc3n2)cc1F [compound 72, 2-(3-fluoro-4-methoxyphenyl)-7-(piperazin-1-yl)-4H-pyrido[1,2-a]pyrimidin-4-one]
1000 to 3000 nM	Cc1cn2cc(-c3cc(=O)n4cc(N5CCNCC5)ccc4n3)nc2cn1 [compound 74, 2-(6-methylimidazo[1,2-a]pyrazin-2-yl)-7-(piperazin-1-yl)-4H-pyrido[1,2-a]pyrimidin-4-one]
3000 to 33000 nM	O=c1cc(-c2ccc3nccn3c2)nc2ccc(N3CCNCC3)cn12 [compound 108, 2-(imidazo[1,2-a]pyridin-6-yl)-7-(piperazin-1-yl)-4H-pyrido[1,2-a]pyrimidin-4-one]
1000 to 3000 nM	Cc1cn2cc(-c3cc(=O)n4cc(N5CCNCC5)ccc4n3)ccc2n1 [compound 109, 2-(2-methylimidazo[1,2-a]pyridin-6-yl)-7-(piperazin-1-yl)-4H-pyrido[1,2-a]pyrimidin-4-one]
3000 to 33000 nM	Cc1cn2cc(-c3cc(=O)n4cc(N5CCNCC5)ccc4n3)nc2c(C)n1 [compound 118, 2-(6,8-dimethylimidazo[1,2-a]pyrazin-2-yl)-7-(piperazin-1-yl)-4H-pyrido[1,2-a]pyrimidin-4-one]
1000 to 3000 nM	Cc1cn2nc(-c3cc(=O)n4cc(N5CCNCC5)ccc4n3)cc2c(C)n1 [compound 120, 2-(4,6-dimethylpyrazolo[1,5-a]pyrazin-2-yl)-7-(piperazin-1-yl)-4H-pyrido[1,2-a]pyrimidin-4-one]
3000 to 33000 nM	Cc1cn2nc(-c3cc(=O)n4cc(N5CCN[C@@H](C)C5)ccc4n3)cc2c(C)n1 [compound 121, 2-(4,6-dimethylpyrazolo[1,5-a]pyrazin-2-yl)-7-[(3S)-3-methylpiperazin-1-yl]-4H-pyrido[1,2-a]pyrimidin-4-one]
3000 to 33000 nM	CCc1cn2cc(-c3cc(=O)n4cc(N5CCNCC5)ccc4n3)ccc2n1 [compound 124, 2-(2-ethylimidazo[1,2-a]pyridin-6-yl)-7-(piperazin-1-yl)-4H-pyrido[1,2-a]pyrimidin-4-one]
3000 to 33000 nM	Cc1nc2ccc(-c3cc(=O)n4cc(N5CCNCC5)ccc4n3)cn2c1C [compound 125, 2-(2,3-dimethylimidazo[1,2-a]pyridin-6-yl)-7-(piperazin-1-yl)-4H-pyrido[1,2-a]pyrimidin-4-one]
3000 to 33000 nM	O=c1cc(-c2cnc3[nH]ccc3c2)nc2ccc(N3CCNCC3)cn12 [compound 128, 7-(piperazin-1-yl)-2-(1H-pyrrolo[2,3-b]pyridin-5-yl)-4H-pyrido[1,2-a]pyrimidin-4-one]
1000 to 3000 nM	Cn1cc2cc(-c3cc(=O)n4cc(N5CCNCC5)ccc4n3)ccc2n1 [compound 137, 2-(2-methyl-2H-indazol-5-yl)-7-(piperazin-1-yl)-4H-pyrido[1,2-a]pyrimidin-4-one]
1000 to 3000 nM	Cc1cn2cc(-c3cc(=O)n4cc(N5CCNCC5)ccc4n3)cc(C)c2n1 [compound 141, 2-(2,8-dimethylimidazo[1,2-a]pyridin-6-yl)-7-(piperazin-1-yl)-4H-pyrido[1,2-a]pyrimidin-4-one]
3000 to 33000 nM	Cc1csc(-c2cc(=O)n3cc(N4CCN[C@@H](C)C4)ccc3n2)n1 [compound 162, 7-[(3S)-3-methylpiperazin-1-yl]-2-(4-methyl-1,3-thiazol-2-yl)-4H-pyrido[1,2-a]pyrimidin-4-one]
3000 to 33000 nM	Cc1csc(-c2cc(=O)n3cc(N4CCNCC4)ccc3n2)n1 [compound 163, 2-(4-methyl-1,3-thiazol-2-yl)-7-(piperazin-1-yl)-4H-pyrido[1,2-a]pyrimidin-4-one]
3000 to 33000 nM	Cc1cn2nc(-c3cc(=O)n4cc(N5CCN(C)CC5)ccc4n3)cc2c(C)n1 [compound 170, 2-(4,6-dimethylpyrazolo[1,5-a]pyrazin-2-yl)-7-(4-methylpiperazin-1-yl)-4H-pyrido[1,2-a]pyrimidin-4-one]
